The subject of data set [1] is HCV replicon (pSGR-399LM) in Huh7 cells. In words: Inhibitory activity in the HCV replicon system (Renilla luciferase). It counts as cell-based. The following applies: Hepatitis C virus, Huh-7, pSGR-399LM replicon Huh7 cells, 72 hr. The method, then:
The Inhibitory Activity of Compounds in the HCV Replicon System
HCV replicon cell-line: The Huh7 cells were transfected with pSGR-399LM replicon DNA and cultured in the DMEM containing 10% FBS and 0.5 mg/mL G418. The cells were split at 1:3 to 1:5 every 3-4 days. The transfected cells were seeded in 96-well plates and cultured at 37° C., 5% CO2 for 24 hr.
Treatment with samples: To the HCV replicon Huh7 cells-line were added different concentration of the samples (i.e. compound Ik, wherein k=1, 2, 3 . . . 42), the each concentration for duplicate, and set no sample control wells. The concentration started at 400 nM, with quarter dilution to form five different concentrations of samples, that is 400 nM, 100 nM, 25 nM, 6.25 nM and 1.56 nM. The samples were added separately, and continued to incubated for 72 hr.
Fluorescence detection: After 72 hr treatment with sample, the cells were lysed and added with Renilla luciferase substrate to detect luminescent signal. The relative luminescent unit (RLU) in the luminometer was read out and used to calculate the inhibition rate of HCV.
In general terms: Replicon systems follow genome replication, usually without infectious particles.

The test system of data set [2] is HCV (J399EM virus) in Huh7.5.1 cells. In words: Inhibition of HCV replication in HCV infected human hepatocellular carcinoma cells (Huh7.5.1), HCV-EGFP fluorescence. It counts as cell-based. Conditions: Hepatitis C virus, Huh-7.5.1, 72 h, read-out: HCV infected human hepatocellular carcinoma cells in vitro EC50(nM). Here is the method: In Vitro Inhibitory Activity of Compounds in HCV Replication in HCV Infected Human Hepatocellular Carcinoma Cells (Huh7.5.1)
The preparation of Huh7.5.1cells: Huh 7.5.1 cells were seeded at a 96-well plate with 37 and 5% CO2 for 24 hours incubation.
Virus infection: Using the J399EM virus supernatants (moi≈0.1) to infect Huh7.5.1cells. At the same time, the no virus infected cell will be set up as the control. After 8 hours virus infection, the virus will be washed out with PBS.
Drug treatment: The different doses of samples (i.e. the compound Ik, wherein k=1, 2, 3, . . . 42) were added in J399EM infected Huh7.5.1 cells, the each dose for duplicate. At the same time the no sample added in wells will be set up as the control. The test dose of sample is starting from 25 nM or 400 nM, with quarter dilution, 5 doses of sample will be added in the test wells, respectively, then continued for 72 hours incubation.
HCV-EGFP fluorescence detection: After samples treatment for 72 hours, the autofluorescence of HCV-EGFP were measured by the luminometer with excitation of 488 nm, and emission of 516 nm. The related fluorescence unit (RFU) of samples will be read out and used for calculating the inhibitory rates of compounds in HCV replication.

Data set [3] is described as follows: Pharmacokinetic evaluation in SD rats after oral administration. It counts as in vivo, Sprague-Dawley (SD) rats. Conditions: oral gavage, 10 mg/kg; for bioavailability: read-out: F (absolute bioavailability). The method, then: Pharmacokinetic Evaluation of the Compounds of this Invention
Twenty healthy male Sprague-Dawley (SD) rats with body weight of 200-220 g were divided into 5 groups randomly and each group contains 4 rats. Before the experiment, rats were fasted for 12 h with free access to water. The compound Ik (wherein k=2, 5, 18, 34 or 38) of this invention was administered by oral gavage at a dose level of 10 mg/kg. The compounds were prepared with 0.5% CMC-Na containing 1% Tween 80. The dose volume was 10 mL/kg. The rats were afforded unlimited access to food after 2 h of dosing 0.3 mL of blood samples were collected at 0.25 h, 0.5 h, 1.0 h, 2.0 h, 3.0 h, 5.0 h, 7.0 h, 9.0 h, and 24.0 h, respectively, from postocular venous plexes of the rat. The blood samples were placed in heparin-containing tubes and immediately centrifuged at 11000 rpm for 5 min. Plasma was separated and refrigerated at −20° C. until analysis. LC-MS/MS methods were used to quantify plasma concentrations of the compound Ik.

The mark [4] stands for this setting: male, Sprague-Dawley, rat, plasma.
Setting [5] is: male, Sprague-Dawley, rat, plasma, po, read-out: Cmax.
The mark [6] stands for this setting: male, Sprague-Dawley, rat, plasma, po.

Like-named read-outs stand apart in the source and are kept apart here.

Broadly, the EC50 is the concentration needed to bring the measured effect to its halfway point. What is called AUC(0-inf) is total exposure, with the tail of the curve extrapolated. As usually defined, the AUC(0-t) is exposure summed from dosing to a finite time, without extrapolation to infinity. The Tmax is the time from dosing to the highest level. One may read the half-life as the time in which the quantity being followed falls by half. Usually Cmax stands for the peak of the concentration-time curve. One may read the bioavailability as the share of a dose that reaches the circulation, judged against a reference dose that is usually intravenous. On to `COc1ccc2oc3c4ccccc4c(O[C@@H]4C[C@H]5C(=O)N[C@]6(C(=O)NS(=O)(=O)C7CC7)C[C@H]6/C=C\CCCCC[C@H](NC(=O)OC(C)(C)C)C(=O)N5C4)nc3c2c1` [Compound 2, tert-butyl(2R,6S,13aS,14aR,16aS,Z)-14a-(cyclopropylsulfonylcarbamoyl)-2-(8-methoxybenzofuro[3,2-c]isoquinolin-5-yloxy)-5,16-dioxo-1,2,3,5,6,7,8,9,10,11,13a,14,14a,15,16,16a-hexadecahydrocyclopropa[e]pyrrolo[1,2-a][1,4]diazacyclopentadecin-6-yl carbamate], for which, in data set [1], the EC50 was under 100 nM. In addition, the EC50 in data set [2] was under 100 nM. For the same compound, in data set [3] (setting [4]), the AUC(0-inf) was 1780 ± 53.7 ng·h/mL, the AUC(0-t) was 158 ± 49.8 ng·h/mL, the Tmax came out at 24 ± 6 min and the half-life was 186 ± 78 min. The Cmax in data set [3] (setting [5]) was determined as 49.7 ± 11 ng/mL. The bioavailability in data set [3] (setting [6]) was 1.8%.

As for `CC(C)(C)OC(=O)N[C@H]1CCCCC/C=C\[C@@H]2C[C@@]2(C(=O)NS(=O)(=O)C2CC2)NC(=O)[C@@H]2C[C@@H](Oc3nc4c5cc(Cl)ccc5oc4c4ccccc34)CN2C1=O` [Compound 5], the EC50 in data set [1] is under 100 nM. Further, in data set [2], the EC50 is under 100 nM. Also, in data set [3] (setting [4]), the AUC(0-inf) turned out to be 3030 ± 1700 ng·h/mL, the AUC(0-t) worked out at 2880 ± 1720 ng·h/mL, the time of peak concentration (Tmax) was 75 ± 30 min and the half-life was 209 ± 65.4 min. In addition, the Cmax in data set [3] (setting [5]) amounted to 560 ± 139 ng/mL. Also, the bioavailability in data set [3] (setting [6]) stood at 17.1%.

Turning to `COc1ccc2c(c1)c(O[C@@H]1C[C@H]3C(=O)N[C@]4(C(=O)NS(=O)(=O)C5CC5)C[C@H]4/C=C\CCCCC[C@H](NC(=O)OC(C)(C)C)C(=O)N3C1)nc1c3ccccc3oc21` [Compound 18], the EC50 in data set [1] is under 100 nM. Further, the EC50 in data set [2] is under 100 nM. For the same compound, in data set [3] (setting [4]), the AUC(0-inf) worked out at 3270 ± 303 ng·h/mL, the AUC(0-t) came to 3220 ± 336 ng·h/mL, the Tmax was determined as 102 ± 36 min and the half-life is 228 ± 60 min. Also, the Cmax in data set [3] (setting [5]) stood at 623 ± 60.7 ng/mL. For the same compound, the bioavailability in data set [3] (setting [6]) was about 36.1%. Moreover, in data set [3] (listed as I18, 10 mg/kg), the Cmax was 623.3 ± 60.7 ng/mL.

With `C=C[C@@H]1C[C@]1(NC(=O)[C@@H]1C[C@@H](Oc2nc3c4ccccc4oc3c3ccc(Cl)cc23)CN1C(=O)[C@@H](NC(=O)OC(C)(C)C)C(C)(C)C)C(=O)NS(=O)(=O)C1CC1` [Compound 29], the EC50 in data set [1] and in data set [2] was under 100 nM each time.

As to `C=C[C@@H]1C[C@]1(NC(=O)[C@@H]1C[C@@H](Oc2nc3c4ccccc4oc3c3ccc(Br)cc23)CN1C(=O)[C@@H](NC(=O)OC(C)(C)C)C(C)(C)C)C(=O)NS(=O)(=O)C1CC1` [Compound 30], the half-maximal effective concentration (EC50) in data set [1] and in data set [2] was 100 to 1000 nM in each case.

As to `C=C[C@@H]1C[C@]1(NC(=O)[C@@H]1C[C@@H](Oc2nc3c4ccccc4oc3c3ccc(OC)cc23)CN1C(=O)[C@@H](NC(=O)OC(C)(C)C)C(C)(C)C)C(=O)NS(=O)(=O)C1CC1` [Compound 31], the EC50 in data set [1] and in data set [2] was 100 to 1000 nM in each case.

For the compound `C=C[C@@H]1C[C@]1(NC(=O)[C@@H]1C[C@@H](Oc2nc3c4cc(OC)ccc4oc3c3ccc(Cl)cc23)CN1C(=O)[C@@H](NC(=O)OC(C)(C)C)C(C)(C)C)C(=O)NS(=O)(=O)C1CC1` [Compound 32], the figures for the EC50 in data set [1] and in data set [2] were under 100 nM and 100 to 1000 nM, respectively.

Consider `C=C[C@@H]1C[C@]1(NC(=O)[C@@H]1C[C@@H](Oc2nc3c4cc(Cl)ccc4oc3c3ccc(Cl)cc23)CN1C(=O)[C@@H](NC(=O)OC(C)(C)C)C(C)(C)C)C(=O)NS(=O)(=O)C1CC1` [Compound 33], for which the EC50 in data set [1] and in data set [2] was 100 to 1000 nM each time.

In the case of `C=C[C@@H]1C[C@]1(NC(=O)[C@@H]1C[C@@H](Oc2cc(-c3csc(NC(=O)C(C)C)n3)nc3c2oc2ccc(OC)c(Cl)c23)CN1C(=O)[C@@H](NC(=O)OC(C)(C)C)C(C)(C)C)C(=O)NS(=O)(=O)C1CC1` [Compound 34], the EC50 in data set [1] is under 100 nM. Further, the EC50 in data set [2] is under 100 nM. Besides, in data set [3] (setting [4]), the AUC(0-inf) was 11 ± 1.1 ng·h/mL, the AUC(0-t) turned out to be 9.6 ± 0.9 ng·h/mL, the Tmax amounted to 24 ± 12 min and the half-life is 30 ± 18 min. Also, the Cmax in data set [3] (setting [5]) was found to be 11.4 ± 4.3 ng/mL. Besides, the bioavailability in data set [3] (setting [6]) came out at 1.6%.

Take `C=C[C@@H]1C[C@]1(NC(=O)[C@@H]1C[C@@H](Oc2cc(-c3csc(NC(=O)C(C)C)n3)nc3c2oc2ccc(OC)c(Br)c23)CN1C(=O)[C@@H](NC(=O)OC(C)(C)C)C(C)(C)C)C(=O)NS(=O)(=O)C1CC1` [Compound 35]: the EC50 in data set [1] and in data set [2] was under 100 nM each time.

As to `O=C1N[C@]2(C(=O)NS(=O)(=O)C3CC3)C[C@H]2/C=C\CCCCC[C@H](CC(=O)N2CCCCC2)C(=O)N2C[C@H](Oc3cc(-c4ccccc4)nc4c3oc3ccccc34)C[C@@H]12` [Compound 36], the EC50 was under 100 nM in data set [1] and 100 to 1000 nM in data set [2].

As for `C=C[C@@H]1C[C@]1(NC(=O)[C@@H]1C[C@@H](Oc2cc(-c3ccccc3)nc3c2oc2ccccc23)CN1C(=O)[C@@H](CC(=O)N1CCCCC1)C(C)(C)C)C(=O)NS(=O)(=O)C1CC1` [Compound 37], the EC50 in data set [1] and in data set [2] was 100 to 1000 nM each time.

Consider `C=C[C@@H]1C[C@]1(NC(=O)[C@@H]1C[C@@H](Oc2cc(-c3ccccc3)nc3c2oc2ccccc23)CN1C(=O)[C@@H](NC(=O)OC(C)(C)C)C(C)(C)C)C(=O)NS(=O)(=O)C1CC1` [Compound 38], for which the EC50 in data set [1] was under 100 nM. In data set [2], the 50% effective concentration (EC50) is under 100 nM. Also, in data set [3] (setting [4]), the AUC(0-inf) was 243 ± 81 ng·h/mL, the AUC(0-t) worked out at 239 ± 81 ng·h/mL, the Tmax stood at 37.8 ± 15 min and the half-life is 43.2 ± 18 min. Besides, the Cmax in data set [3] (setting [5]) was determined as 150 ± 42 ng/mL. Further, the bioavailability in data set [3] (setting [6]) stood at 8.7%.

As for `C=C[C@@H]1C[C@]1(NC(=O)[C@@H]1C[C@@H](Oc2cc(-c3cnc(C(C)(C)O)s3)nc3c2oc2ccc(OC)c(Cl)c23)CN1C(=O)[C@@H](NC(=O)OC(C)(C)C)C(C)(C)C)C(=O)NS(=O)(=O)C1CC1` [Compound 39], the EC50 in data set [1] and in data set [2] was under 100 nM throughout.

Take `C=C[C@@H]1C[C@]1(NC(=O)[C@@H]1C[C@@H](Oc2cc(-c3cnc(C(C)(C)O)s3)nc3c2oc2ccc(OC)c(Br)c23)CN1C(=O)[C@@H](NC(=O)OC(C)(C)C)C(C)(C)C)C(=O)NS(=O)(=O)C1CC1` [Compound 40]: the EC50 in data set [1] and in data set [2] was under 100 nM throughout.

These data come from patent US8969373B2, “HCV protease inhibitors” (Shanghai Tangrun Pharmaceuticals Co., Ltd., priority 2011, dated 2015).
